# Target: GLP-1R (Homo sapiens, UniProt P43220)
# Assay: GLP-1R activation: cAMP increase in CHO cells stably expressing GLP-1R
# Type: cell-based
# Settings: cAMP increase, CHO cells stably expressing GLP-1R, 10 point dose response, 30 minutes incubation; read-out: EC50
# GLP-1R, sequence (P43220 24-463): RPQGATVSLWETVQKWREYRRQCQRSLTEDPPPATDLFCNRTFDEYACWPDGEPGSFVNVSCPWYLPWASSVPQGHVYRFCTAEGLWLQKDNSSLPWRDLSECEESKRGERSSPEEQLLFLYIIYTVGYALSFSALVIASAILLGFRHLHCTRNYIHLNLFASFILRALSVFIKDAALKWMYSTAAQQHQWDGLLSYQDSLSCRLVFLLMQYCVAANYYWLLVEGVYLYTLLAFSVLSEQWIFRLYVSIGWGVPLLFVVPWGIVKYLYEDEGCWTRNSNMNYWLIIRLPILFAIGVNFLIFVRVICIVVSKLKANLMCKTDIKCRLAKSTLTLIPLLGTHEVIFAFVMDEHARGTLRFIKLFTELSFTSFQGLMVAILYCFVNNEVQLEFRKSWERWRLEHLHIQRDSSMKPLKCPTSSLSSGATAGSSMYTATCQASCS
row,SMILES,EC50 [nM]
1,COCCn1c(Cc2cc(F)c(-c3cccc(OCc4csc(Cl)c4)n3)cc2F)nc2ccc(C(=O)O)cc21 [Example 692],12.3
2,COCCn1c(Cc2ccc(-c3cccc(OCc4ccc(Cl)cn4)n3)cc2F)nc2ccc(C(=O)O)cc21 [Example 693],15.9
3,COCCn1c(Cc2cc(F)c(-c3cccc(OCc4ccn(-c5ccccc5)n4)n3)cc2F)nc2ccc(C(=O)O)cc21 [Example 694],41.7
4,COC1(Cn2c(Cc3cc(F)c(-c4cccc(OCc5ccc(C#N)cc5F)n4)cc3F)nc3ccc(C(=O)O)cc32)CN(C2COC2)C1 [Example 696],592
5,N#Cc1ccc(COc2cccc(-c3cc(F)c(Cc4nc5ccc(C(=O)O)cc5n4[C@H]4CCC(F)(F)C4)cc3F)n2)c(F)c1 [Example 698],63.2
6,N#Cc1ccc(COc2cccc(-c3cc(F)c(Cc4nc5ccc(C(=O)O)cc5n4[C@@H]4CCC(F)(F)C4)cc3F)n2)c(F)c1 [Example 699],83.9
7,N#Cc1ccc(COc2cccc(-c3cc(F)c(Cc4nc5ccc(C(=O)O)cc5n4C4CCCC4(F)F)cc3F)n2)c(F)c1 (stereo not drawn) [Example 700],3.48
8,CO[C@H]1CC[C@@H]1n1c(Cc2cc(F)c(-c3cccc(OCc4ccc(C#N)cc4F)n3)cc2F)nc2ccc(C(=O)O)cc21 [Example 701],145
9,N#Cc1ccc(COc2cccc(-c3cc(F)c(Cc4nc5ccc(C(=O)O)cc5n4C4COCCOC4)cc3F)n2)c(F)c1 [Example 702],8.14
10,N#Cc1ccc(COc2cccc(-c3cc(F)c(Cc4nc5ccc(C(=O)O)cc5n4CC45COCC4C5(F)F)cc3F)n2)c(F)c1 (stereo not drawn) [Example 703],1.01
11,N#Cc1ccc(COc2cccc(-c3cc(F)c(Cc4nc5ccc(C(=O)O)cc5n4CC45COCC4C5)cc3F)n2)c(F)c1 (stereo not drawn) [Example 704],0.98
12,N#Cc1ccc(COc2cccc(-c3cc(F)c(Cc4nc5ccc(C(=O)O)cc5n4[C@H]4CC[C@@H]4O)cc3F)n2)c(F)c1 [Example 705],73.2
13,N#Cc1ccc(COc2cccc(-c3cc(F)c(Cc4nc5ccc(C(=O)O)cc5n4Cc4cncs4)cc3F)n2)c(F)c1 [Example 706],1.31
14,N#Cc1ccc(COc2cccc(-c3cc(F)c(Cc4nc5ccc(C(=O)O)cc5n4Cc4nccs4)cc3F)n2)c(F)c1 [Example 707],4.81
15,CO[C@@H]1CCC[C@@H]1n1c(Cc2cc(F)c(-c3cccc(OCc4ccc(C#N)cc4F)n3)cc2F)nc2ccc(C(=O)O)cc21 [Example 708],0.64
16,CO[C@H]1CCC[C@@H]1n1c(Cc2cc(F)c(-c3cccc(OCc4ccc(C#N)cc4F)n3)cc2F)nc2ccc(C(=O)O)cc21 [Example 709],4.77
17,N#Cc1ccc(COc2cccc(-c3cc(F)c(Cc4nc5ccc(C(=O)O)cc5n4[C@H]4CCC[C@@]45CCCO5)cc3F)n2)c(F)c1 [Example 710],1.45
18,CO[C@@H]1COC[C@@H]1n1c(Cc2cc(F)c(-c3cccc(OCc4ccc(C#N)cc4F)n3)cc2F)nc2ccc(C(=O)O)cc21 [Example 711],0.08
19,CO[C@H]1COC[C@@H]1n1c(Cc2cc(F)c(-c3cccc(OCc4ccc(C#N)cc4F)n3)cc2F)nc2ccc(C(=O)O)cc21 [Example 712],2.55
20,N#Cc1ccc(COc2cccc(-c3cc(F)c(Cc4nc5ccc(C(=O)O)cc5n4CC4(F)CCOCC4)cc3F)n2)c(F)c1 [Example 713],5.76
21,CC12CCC(Cn3c(Cc4cc(F)c(-c5cccc(OCc6ccc(C#N)cc6F)n5)cc4F)nc4ccc(C(=O)O)cc43)(C1)OC2 (stereo not drawn) [Example 714],24.9

# Same assay, conditions: read-out: EC50
row,SMILES,EC50 [nM]
1,CC(=O)N1C[C@@H](F)C[C@@H]1Cn1c(Cc2cc(F)c(-c3cccc(OCc4ccc(C#N)cc4F)n3)cc2F)nc2ccc(C(=O)O)cc21 [Example 690],3.98
2,CC(=O)N1C[C@H](F)C[C@@H]1Cn1c(Cc2cc(F)c(-c3cccc(OCc4ccc(C#N)cc4F)n3)cc2F)nc2ccc(C(=O)O)cc21 [Example 691],0.06
3,CN1CC2CC1(Cn1c(Cc3cc(F)c(-c4cccc(OCc5ccc(C#N)cc5F)n4)cc3F)nc3ccc(C(=O)O)cc31)C2 [Example 697],25.6

# System: not listed separately
# Assay: Microsomal stability, human liver microsomes (predicted hepatic clearance)
# Settings: predicted from in vitro microsomal stability data
row,SMILES,Predicted Hepatic Clearance (Pred. Cl.) [mL/min/kg]
1,CC(=O)N1C[C@@H](F)C[C@@H]1Cn1c(Cc2cc(F)c(-c3cccc(OCc4ccc(C#N)cc4F)n3)cc2F)nc2ccc(C(=O)O)cc21 [Example 690],6
2,CC(=O)N1C[C@H](F)C[C@@H]1Cn1c(Cc2cc(F)c(-c3cccc(OCc4ccc(C#N)cc4F)n3)cc2F)nc2ccc(C(=O)O)cc21 [Example 691],4.17
3,COCCn1c(Cc2cc(F)c(-c3cccc(OCc4csc(Cl)c4)n3)cc2F)nc2ccc(C(=O)O)cc21 [Example 692],1.83
4,COCCn1c(Cc2ccc(-c3cccc(OCc4ccc(Cl)cn4)n3)cc2F)nc2ccc(C(=O)O)cc21 [Example 693],9.67
5,COCCn1c(Cc2cc(F)c(-c3cccc(OCc4ccn(-c5ccccc5)n4)n3)cc2F)nc2ccc(C(=O)O)cc21 [Example 694],1.83
6,COC1(Cn2c(Cc3cc(F)c(-c4cccc(OCc5ccc(C#N)cc5F)n4)cc3F)nc3ccc(C(=O)O)cc32)CN(C2COC2)C1 [Example 696],10.8
7,CN1CC2CC1(Cn1c(Cc3cc(F)c(-c4cccc(OCc5ccc(C#N)cc5F)n4)cc3F)nc3ccc(C(=O)O)cc31)C2 [Example 697],1.83
8,N#Cc1ccc(COc2cccc(-c3cc(F)c(Cc4nc5ccc(C(=O)O)cc5n4[C@H]4CCC(F)(F)C4)cc3F)n2)c(F)c1 [Example 698],6.33
9,N#Cc1ccc(COc2cccc(-c3cc(F)c(Cc4nc5ccc(C(=O)O)cc5n4[C@@H]4CCC(F)(F)C4)cc3F)n2)c(F)c1 [Example 699],4.67
10,N#Cc1ccc(COc2cccc(-c3cc(F)c(Cc4nc5ccc(C(=O)O)cc5n4C4CCCC4(F)F)cc3F)n2)c(F)c1 (stereo not drawn) [Example 700],5.17
11,CO[C@H]1CC[C@@H]1n1c(Cc2cc(F)c(-c3cccc(OCc4ccc(C#N)cc4F)n3)cc2F)nc2ccc(C(=O)O)cc21 [Example 701],3.83
12,N#Cc1ccc(COc2cccc(-c3cc(F)c(Cc4nc5ccc(C(=O)O)cc5n4C4COCCOC4)cc3F)n2)c(F)c1 [Example 702],2.67
13,N#Cc1ccc(COc2cccc(-c3cc(F)c(Cc4nc5ccc(C(=O)O)cc5n4CC45COCC4C5(F)F)cc3F)n2)c(F)c1 (stereo not drawn) [Example 703],5.67
14,N#Cc1ccc(COc2cccc(-c3cc(F)c(Cc4nc5ccc(C(=O)O)cc5n4CC45COCC4C5)cc3F)n2)c(F)c1 (stereo not drawn) [Example 704],1.83
15,N#Cc1ccc(COc2cccc(-c3cc(F)c(Cc4nc5ccc(C(=O)O)cc5n4[C@H]4CC[C@@H]4O)cc3F)n2)c(F)c1 [Example 705],13.3
16,N#Cc1ccc(COc2cccc(-c3cc(F)c(Cc4nc5ccc(C(=O)O)cc5n4Cc4cncs4)cc3F)n2)c(F)c1 [Example 706],12.2
17,N#Cc1ccc(COc2cccc(-c3cc(F)c(Cc4nc5ccc(C(=O)O)cc5n4Cc4nccs4)cc3F)n2)c(F)c1 [Example 707],4
18,CO[C@@H]1CCC[C@@H]1n1c(Cc2cc(F)c(-c3cccc(OCc4ccc(C#N)cc4F)n3)cc2F)nc2ccc(C(=O)O)cc21 [Example 708],7.5
19,CO[C@H]1CCC[C@@H]1n1c(Cc2cc(F)c(-c3cccc(OCc4ccc(C#N)cc4F)n3)cc2F)nc2ccc(C(=O)O)cc21 [Example 709],8.83
20,N#Cc1ccc(COc2cccc(-c3cc(F)c(Cc4nc5ccc(C(=O)O)cc5n4[C@H]4CCC[C@@]45CCCO5)cc3F)n2)c(F)c1 [Example 710],11
21,CO[C@@H]1COC[C@@H]1n1c(Cc2cc(F)c(-c3cccc(OCc4ccc(C#N)cc4F)n3)cc2F)nc2ccc(C(=O)O)cc21 [Example 711],6.33
22,CO[C@H]1COC[C@@H]1n1c(Cc2cc(F)c(-c3cccc(OCc4ccc(C#N)cc4F)n3)cc2F)nc2ccc(C(=O)O)cc21 [Example 712],6.83
23,N#Cc1ccc(COc2cccc(-c3cc(F)c(Cc4nc5ccc(C(=O)O)cc5n4CC4(F)CCOCC4)cc3F)n2)c(F)c1 [Example 713],2.5
24,CC12CCC(Cn3c(Cc4cc(F)c(-c5cccc(OCc6ccc(C#N)cc6F)n5)cc4F)nc4ccc(C(=O)O)cc43)(C1)OC2 (stereo not drawn) [Example 714],1.83

# From US11702404B2, “GLP-1R modulating compounds” (priority 2019, dated 2023)
